Some results are limits rather than exact numbers.

In one experiment the target is T1, full length AKT E17K (Homo sapiens, UniProt P31749, E17K).
T1 construct: host or cells: HEK-293 (ATCC CRL-1573)
T1 sequence (P31749 whole entry E17K): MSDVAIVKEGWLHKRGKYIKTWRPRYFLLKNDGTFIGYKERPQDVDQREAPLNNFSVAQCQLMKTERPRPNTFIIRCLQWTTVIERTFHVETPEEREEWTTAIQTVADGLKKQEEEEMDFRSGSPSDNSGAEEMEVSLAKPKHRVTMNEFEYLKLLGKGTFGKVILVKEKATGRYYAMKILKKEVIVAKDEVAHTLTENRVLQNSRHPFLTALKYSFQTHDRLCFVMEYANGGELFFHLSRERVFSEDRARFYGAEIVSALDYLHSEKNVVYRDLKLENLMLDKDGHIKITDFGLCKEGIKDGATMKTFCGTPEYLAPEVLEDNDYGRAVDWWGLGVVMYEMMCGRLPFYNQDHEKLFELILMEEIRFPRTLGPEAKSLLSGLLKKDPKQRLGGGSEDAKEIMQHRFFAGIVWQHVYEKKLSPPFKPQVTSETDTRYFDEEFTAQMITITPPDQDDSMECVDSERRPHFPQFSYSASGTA
Put plainly: NanoBRET Target Engagement (TE) Intracellular Kinase Assay. The experiment is classed as cell-based.
Details: not given
The text has this:
The NanoBRET™ Target Engagement (TE) Intracellular Kinase Assays are based on the NanoBRET™ System (Promega Corporation), an energy transfer technique designed to measure molecular proximity in living cells. The NanoBRET™ TE Assays measure the apparent affinity of test compounds by competitive displacement of the NanoBRET™ tracer compound, which is a cell permeable molecule engineered to be reversibly bound to a NanoLuc® luciferase-kinase fusion expressed in cells. For compound screening, when a test compound binds to the selected kinase, the BRET signal is attenuated. […] All cells were evaluated for viability prior to transfection and optimization of the transfection was done prior to experimentation. […] Following transfection, cells were washed and resuspended in Opti-MEM. NanoBRET assays were performed in white, 384-well plates (Corning) at a density of 2×10^5 cells/well. All example compounds were prepared as concentrated stock solutions in DMSO (Sigma-Aldrich). Compounds are dissolved in DMSO to make 10 mM stock solution. […] A Labcyte ECHO 550 compound dispenser was used to facilitate compound transfer directly to cells. Cells were equilibrated for 2 hr with energy transfer probes and example compound prior to BRET measurements. […] For target engagement analysis, the energy transfer probes were added to the cells at concentrations optimized for the target in question (AKT E17K). Following compound incubation, NanoBRET NanoGlo Substrate (Promega Cat #Ni57D) and Extracellular Nanoluc Inhibitor (Promega Cat #N235C) was added according to the manufacturer's recommended protocol, and luminescence was measured on Envision Reader (Perkin Elmer) Multimode Luminometer equipped with 450 nm BPfilter (donor) and 600 nm LPfilter (acceptor), using 0.5 s integration time. Milli-BRET units (mBU) are calculated by multiplying the raw BRET values by 1000. Apparent tracer affinity values (EC50) were determined using the sigmoidal dose-response (variable slope). Competitive displacement data were then plotted and data were fit to determine the EC50 value for each example compound.
(In general: In BRET a luciferase serves as donor, and the signal depends on an acceptor being close.)
As a reminder, the EC50 is the concentration at which the effect is half-maximal. On to `CCOc1c(N2CCC3(CC2)CN(Cc2ccc(-n4c(-c5cccnc5N)nc5ccc(-c6ccccc6)nc54)cc2)C3)c(=O)c1=O` [Example 59, 3-(2-(4-(2-(2-Aminopyridin-3-yl)-5-phenyl-3H-imidazo[4,5-b]pyridin-3-yl)benzyl)-2,7-diazaspiro[3.5]nonan-7-yl)-4-ethoxycyclobut-3-ene-1,2-dione], for which the EC50 lay in the range of 0.015 to 0.06 µM. Same read-out and setting: the result for `COc1c(N2CCN(Cc3ccc(-n4c(-c5cccnc5N)nc5ccc(-c6ccccc6)nc54)cc3)C[C@H]2CO)c(=O)c1=O` [Example 80, (S)-3-(4-(4-(2-(2-aminopyridin-3-yl)-5-phenyl-3H-imidazo[4,5-b]pyridin-3-yl)benzyl)-2-(hydroxymethyl)piperazin-1-yl)-4-methoxycyclobut-3-ene-1,2-dione] reads 0.06 to 0.6 µM; that for `COc1c(NC2CCCCN(Cc3ccc(-n4c(-c5cccnc5N)nc5ccc(-c6ccccc6)nc54)cc3)C2)c(=O)c1=O` (stereo not shown) [Example 74, 3-((1-(4-(2-(2-aminopyridin-3-yl)-5-phenyl-3H-imidazo[4,5-b]pyridin-3-yl)benzyl)azepan-3-yl)amino)-4-methoxycyclobut-3-ene-1,2-dione], 0.06 to 0.6 µM; that for `Nc1ncccc1-c1nc2ccc(-c3ccccc3)nc2n1-c1ccc(CNC(=O)c2cccc(Nc3c(O)c(=O)c3=O)c2)cc1` [Example 43, N-(4-(2-(2-Aminopyridin-3-yl)-5-phenyl-3H-imidazo[4,5-b]pyridin-3-yl)benzyl)-3-((2-hydroxy-3,4-dioxocyclobut-1-en-1-yl)amino)benzamide], more than 0.6 µM.

`Nc1ncccc1-c1nc2ccc(-c3ccccc3)nc2n1-c1ccc(CN2CCC(Nc3c(S)c(=O)c3=O)CC2)cc1` [Example 44, 3-((1-(4-(2-(2-aminopyridin-3-yl)-5-phenyl-3H-imidazo[4,5-b]pyridin-3-yl)benzyl)piperidin-4-yl)amino)-4-mercaptocyclobut-3-ene-1,2-dione] yielded an EC50 of 0.06 to 0.6 µM.

Staying with this experiment, now noted: read-out: NanoBRET AKT1E17K EC50; HEK-293 cells transfected with NanoLuc-AKT E17K; competitive displacement of NanoBRET tracer; 2 hr equilibration; 10-point 3-fold dilution.
Turning to `COc1c(N2CCCN(Cc3ccc(-n4c(-c5cccnc5N)nc5ccc(-c6ccccc6)nc54)cc3)CC2)c(=O)c1=O` [Example 38, 3-(4-(4-(2-(2-Aminopyridin-3-yl)-5-phenyl-3H-imidazo[4,5-b]pyridin-3-yl)benzyl)-1,4-diazepan-1-yl)-4-methoxycyclobut-3-ene-1,2-dione], the EC50 is less than 0.015 µM. On the same count and under the same terms, next, `COc1c(N(C)[C@H]2CCN(Cc3ccc(-n4c(-c5cccnc5N)nc5ccc(-c6ccccc6)nc54)cc3)C2)c(=O)c1=O` [Example 81, (S)-3-((1-(4-(2-(2-aminopyridin-3-yl)-5-phenyl-3H-imidazo[4,5-b]pyridin-3-yl)benzyl)pyrrolidin-3-yl)(methyl)amino)-4-methoxycyclobut-3-ene-1,2-dione]: less than 0.015 µM; `CSc1c(N2C[C@H]3CN(Cc4ccc(-n5c(-c6cccnc6N)nc6ccc(-c7ccccc7)nc65)cc4)C[C@H]3C2)c(=O)c1=O` [Example 87, 3-((3aR,6aS)-5-(4-(2-(2-aminopyridin-3-yl)-5-phenyl-3H-imidazo[4,5-b]pyridin-3-yl)benzyl)hexahydropyrrolo[3,4-c]pyrrol-2(1H)-yl)-4-(methylthio)cyclobut-3-ene-1,2-dione]: less than 0.015 µM; `CCN(c1c(SC)c(=O)c1=O)C1CCN(Cc2ccc(-n3c(-c4cccnc4N)nc4ccc(-c5ccccc5)nc43)cc2)CC1` [Example 92, 3-((1-(4-(2-(2-aminopyridin-3-yl)-5-phenyl-3H-imidazo[4,5-b]pyridin-3-yl)benzyl)piperidin-4-yl)(ethyl)amino)-4-(methylthio)cyclobut-3-ene-1,2-dione]: less than 0.015 µM. Still for that read-out and setting: the result for `COc1c(N2CC3CCC2CN3Cc2ccc(-n3c(-c4cccnc4N)nc4ccc(-c5ccccc5)nc43)cc2)c(=O)c1=O` (stereo not shown) [Example 63, 3-(5-(4-(2-(2-aminopyridin-3-yl)-5-phenyl-3H-imidazo[4,5-b]pyridin-3-yl)benzyl)-2,5-diazabicyclo[2.2.2]octan-2-yl)-4-methoxycyclobut-3-ene-1,2-dione] reads less than 0.015 µM.

(Values after patent US20260365646A1, “AKT1 MODULATORS” (Alterome Therapeutics, Inc., priority 2022, published 2026).)
